Test results published in ChEMBL document CHEMBL1148689, “Isolation of new phenylacetylingol derivatives that reactivate HIV-1 latency and a novel spirotriterpenoid from Euphorbia officinarum latex” (2007).
Activity calls are given as the source filed them. The calls are words filed in the database; no cut-off is given here.

Experiments:
Jurkat [1] = experiment: Induction of HIV-LTR transactivation assessed by GFP expression in Jurkat cells at 25 uM after 36 hrs by flow cytometry; assay type: cell-based; settings: Human immunodeficiency virus
Jurkat [2] = experiment: Cell cycle arrest in human Jurkat cells assessed as accumulation at sub-G0 phase at 10 uM after 36 hrs by flow cytometry; assay type: functional
Jurkat [3] = experiment: Cell cycle arrest in human Jurkat cells assessed as accumulation at sub-G0 phase at 50 uM after 36 hrs by flow cytometry; assay type: functional
Jurkat [4] = experiment: Cell cycle arrest in human Jurkat cells assessed as accumulation at G0/G1 phase at 10 uM after 36 hrs by flow cytometry; assay type: functional
Jurkat [5] = experiment: Cell cycle arrest in human Jurkat cells assessed as accumulation at G0/G1 phase at 50 uM after 36 hrs by flow cytometry; assay type: functional
Jurkat [6] = experiment: Cell cycle arrest in human Jurkat cells assessed as accumulation at S phase at 10 uM after 36 hrs by flow cytometry; assay type: functional
Jurkat [7] = experiment: Cell cycle arrest in human Jurkat cells assessed as accumulation at S phase at 50 uM after 36 hrs by flow cytometry; assay type: functional
Jurkat [8] = experiment: Cell cycle arrest in human Jurkat cells assessed as accumulation at G2/M phase at 10 uM after 36 hrs by flow cytometry; assay type: functional
Jurkat [9] = experiment: Cell cycle arrest in human Jurkat cells assessed as accumulation at G2/M phase at 50 uM after 36 hrs by flow cytometry; assay type: functional
Jurkat [10] = experiment: Induction of HIV-LTR transactivation assessed by GFP expression in Jurkat cells at 10 uM after 36 hrs by flow cytometry; assay type: cell-based; settings: Human immunodeficiency virus
Jurkat [11] = experiment: Induction of HIV-LTR transactivation assessed by GFP expression in Jurkat cells at 50 uM after 36 hrs by flow cytometry; assay type: cell-based; settings: Human immunodeficiency virus
Jurkat [12] = experiment: Induction of HIV-LTR transactivation assessed by GFP expression in Jurkat cells at 10 ng/ml after 36 hrs by flow cytometry; assay type: cell-based; settings: Human immunodeficiency virus

## CO[C@H]1C(OC(C)=O)/C(C)=C/[C@@]23O[C@@]2(C[C@H](C)[C@@H]3OC(=O)Cc2ccccc2)C(=O)[C@H](C)[C@H](OC(C)=O)[C@@H]2[C@H]1C2(C)C (some centres undefined)
Jurkat [1]
  Activity: 66%
Jurkat [2]
  Activity: 2.34%
Jurkat [3]
  Activity: 3.97%
Jurkat [4]
  Activity: 77.8%
Jurkat [5]
  Activity: 81.4%
Jurkat [6]
  Activity: 9.01%
Jurkat [7]
  Activity: 5.31%
Jurkat [8]
  Activity: 10.8%
Jurkat [9]
  Activity: 9.22%
Jurkat [10]
  Activity: 25.5%
Jurkat [11]
  Activity: 83.5%

## CCCCCCCCCCCCCC(=O)O[C@@H]1[C@@H](C)[C@@]2(O)[C@@H](C=C(CO)C[C@]3(O)C(=O)C(C)=C[C@@H]23)[C@@H]2C(C)(C)[C@]12OC(C)=O
Jurkat [12]
  Activity: 97.3%

## CC(=O)OC1/C(C)=C/[C@@]23O[C@@]2(C[C@H](C)[C@@H]3OC(=O)Cc2ccccc2)C(=O)[C@H](C)[C@H](OC(C)=O)[C@@H]2[C@H]([C@H]1OC(C)=O)C2(C)C (some centres undefined)
Jurkat [1]
  Activity: inactive
Jurkat [2]
  Activity: 1.52%
Jurkat [3]
  Activity: 1.38%
Jurkat [4]
  Activity: 61.5%
Jurkat [5]
  Activity: 66.2%
Jurkat [6]
  Activity: 20.9%
Jurkat [7]
  Activity: 18.7%
Jurkat [8]
  Activity: 15.9%
Jurkat [9]
  Activity: 13.4%
Jurkat [10]
  Activity: inactive
Jurkat [11]
  Activity: inactive

## COc1ccc(CC(=O)O[C@H]2[C@@H](C)C[C@@]34O[C@@]23/C=C(\C)C(OC(C)=O)[C@H](OC(C)=O)[C@H]2[C@@H]([C@@H](OC(C)=O)[C@@H](C)C4=O)C2(C)C)cc1 (some centres undefined)
Jurkat [1]
  Activity: inactive
Jurkat [2]
  Activity: 1.59%
Jurkat [3]
  Activity: 1.95%
Jurkat [4]
  Activity: 60.9%
Jurkat [5]
  Activity: 61.5%
Jurkat [6]
  Activity: 21%
Jurkat [7]
  Activity: 21.7%
Jurkat [8]
  Activity: 16.4%
Jurkat [9]
  Activity: 14.7%
Jurkat [10]
  Activity: inactive
Jurkat [11]
  Activity: inactive
